Experimental data reported in PMC9455983 (International Journal of Molecular Sciences, 2022).
Read-outs that look alike come from different tables or passages of the source.

Assays:
[1] = target: T1, kappa-opioid receptor (KOR) (Cavia porcellus, UniProt P41144); assay: KOR radioligand competition binding assay ([3H]U69,593); set-up: species or system guinea pig; conditions: Kappa screening results
T1 construct: Guinea pig cortices and cerebella were homogenized using 50 mM Tris, pH 7.4; from tissue; host or cells: guinea pig cortex and cerebellum membranes
Experimental: KOR binding assay: Guinea pig cortices and cerebella were homogenized using 50 mM Tris, pH 7.4, 10 mM MgCl2-6H2O, […] centrifuged and incubated as above. Each assay tube contained 2 nM [^3H]U69,593. Assay tubes were incubated for 2 h at 25 °C. Unlabeled U50,488 was used as a competitor to generate a standard curve and determine nonspecific binding.
(§1) All three binding assays were terminated by filtration through GF/B filters, soaked in 5 mg/mL bovine serum albumin, 50 mM Tris, pH 7.4, on a Tomtec Mach II Harvester 96. The filters were subsequently washed with 6 mL of assay buffer. Bound radioactivity was counted on a Wallac Betaplate Liquid Scintillation Counter. Experiments were conducted using two replicates and repeated twice. Values in Scheme 2 represent the mean ± SD of two experiments with two replicates in each test.

[2] = target: T2, mu-opioid receptor (MOR) (Rattus norvegicus, UniProt P33535); assay: MOR radioligand competition binding assay ([3H]-DAMGO); conditions: Mu screening results
T2 construct: Rat cortices were homogenized using 50 mM Tris, pH 7.4, and centrifuged at 16,500 rpm for 10 min; from tissue; host or cells: rat cortex membranes
Experimental: MOR binding assay: Rat cortices were homogenized using 50 mM Tris, pH 7.4, and centrifuged at 16,500 rpm for 10 min. The pellets were resuspended in fresh buffer and incubated at 37 °C for 30 min. Following incubation, the suspensions were centrifuged as before, the resulting pellets were resuspended in 100 volumes of 50 mM Tris, pH 7.4 plus 2 mg/mL bovine serum and the suspensions combined. Each assay tube contained 0.5 mL of membrane suspension, 2 nM [^3H]-DAMGO, and 0.02 mg/mL mixture in a total volume of 0.65 mL [13, 45, 53, 55].
as §1

[3] = target: T3, delta-opioid receptor (DOR) (Rattus norvegicus, UniProt P33533); assay: DOR radioligand competition binding assay ([3H]-DPDPE); conditions: Delta screening results
T3 construct: Rat cortices were homogenized using 50 mM Tris, pH 7.4, 10 mM MgCl2-6H2O, 200 µM PMSF; from tissue; host or cells: rat cortex membranes
Experimental: DOR binding assay: Rat cortices were homogenized using 50 mM Tris, pH 7.4, 10 mM MgCl2-6H2O, 200 µM PMSF, centrifuged and incubated as above. Each assay tube contained 2 nM [^3H]-DPDPE. Assay tubes were incubated for 2.5 h at 25 °C. Unlabeled DPDPE was used as a competitor to generate a standard curve and determine nonspecific binding.
as §1

[4] = experiment 1, unit inferred, read-out: Ki (Exp 1)
[5] = experiment 2, unit inferred, read-out: Ki (Exp 2)
[6] = mean of Exp 1 and Exp 2, unit inferred, read-out: MEAN (Ki)
[7] = mean of two experiments, read-out: Ki
[8] = first Ki column, unit not printed (apparently M), read-out: Ki (first column)
[9] = mean of both Ki, unit inferred, read-out: MEAN (Ki)
[10] = second Ki column, unit not printed (apparently M), read-out: Ki (second column)

Structure (SMILES)	Ki [1, 4] [nM]	Ki [1, 5] [nM]	Ki [1, 6] [nM]	Ki [1, 7] [nM]	Ki [2, 4] [nM]	Ki [2, 5] [nM]	Ki [2, 6] [nM]	Ki [2, 7] [nM]	Ki [3, 8] [nM]	Ki [3, 9] [nM]	Ki [3, 7] [nM]	Ki [3, 10] [nM]
Cc1cc(O)cc(C)c1C[C@@H](CN1C(=N)NC[C@@H]1Cc1ccc(O)cc1)N1C[C@H](Cc2ccccc2)NC1=N [1968-29]	1450	1450	1450	1450	117	114	116	116	967	836	836	705
Cc1cc(O)cc(C)c1C[C@@H](CN1C(=N)NC[C@@H]1Cc1ccc(O)cc1)N1C[C@H](Cc2ccc(O)cc2)NC1=N [1968-30]	1730	1760	1740	1740	98.8	127	113	113	1340	1200	1200	1070
Cc1cc(O)cc(C)c1C[C@@H](CN1C(=N)NC[C@@H]1Cc1ccc(O)cc1)N1C[C@H](CC(C)C)NC1=N [1968-31]	2580	2080	2330	2330	295	298	297	297	2200	1940	1940	1680
Cc1cc(O)cc(C)c1C[C@H]1CN([C@@H](Cc2c(C)cc(O)cc2C)CN2C(=N)NC[C@@H]2Cc2ccc(O)cc2)C(=N)N1 [1968-32]	1760	1480	1620	1620	106	134	120	120	469	488	488	507
C[C@H]1CNC(=N)N1C[C@H](Cc1ccccc1)N1C[C@H](Cc2ccccc2)NC1=N [1968-33]	16300	14100	15200	15200	4170	2540	3350	3360	16600	11300	11300	5950
C[C@H]1CNC(=N)N1C[C@H](Cc1ccccc1)N1C[C@H](Cc2ccc(O)cc2)NC1=N [1968-34]	6520	9150	7830	7830	1480	1070	1280	1280	5140	6650	6650	8160
Cc1cc(O)cc(C)c1C[C@H]1CN([C@@H](Cc2ccccc2)CN2C(=N)NC[C@@H]2C)C(=N)N1 [1968-36]	1030	1320	1170	1170	167	124	146	146	3710	3550	3550	3400
C[C@H]1CNC(=N)N1C[C@H](Cc1ccc(O)cc1)N1C[C@H](Cc2ccccc2)NC1=N [1968-37]	3450	3880	3660	3660	749	588	669	669	3430	3610	3610	3800
C[C@H]1CNC(=N)N1C[C@H](Cc1ccc(O)cc1)N1C[C@H](Cc2ccc(O)cc2)NC1=N [1968-38]	1690	1960	1820	1820	174	195	184	184	4270	3800	3800	3330
CC(C)C[C@H]1CN([C@@H](Cc2ccc(O)cc2)CN2C(=N)NC[C@@H]2C)C(=N)N1 [1968-39]	4090	7720	5900	5900	1240	1770	1500	1500	4150	3830	3830	3510
Cc1cc(O)cc(C)c1C[C@H]1CN([C@@H](Cc2ccc(O)cc2)CN2C(=N)NC[C@@H]2C)C(=N)N1 [1968-40]	235	263	249	249	36.4	48.8	42.6	43	1520	1420	1420	1320
CC(C)C[C@@H](CN1C(=N)NC[C@@H]1C)N1C[C@H](Cc2ccccc2)NC1=N [1968-41]	23900	22000	23000	23000	5620	7390	6510	6510	7310			
CC(C)C[C@@H](CN1C(=N)NC[C@@H]1C)N1C[C@H](Cc2ccc(O)cc2)NC1=N [1968-42]	12300	12300	12300	12300	2130	2470	2300	2300	20600	55700	55700	90800
CC(C)C[C@H]1CN([C@@H](CC(C)C)CN2C(=N)NC[C@@H]2C)C(=N)N1 [1968-43]	36000	53000	44500	44500	7810	10700	9260	9260	9250	7970	7970	6690
Cc1cc(O)cc(C)c1C[C@H]1CN([C@@H](CC(C)C)CN2C(=N)NC[C@@H]2C)C(=N)N1 [1968-44]	1830	1420	1630	1630	157	244	200	200	10200	7630	7630	5060
Cc1cc(O)cc(C)c1C[C@H]1CNC(=N)N1C[C@H](Cc1ccccc1)N1C[C@H](Cc2ccccc2)NC1=N [1968-49]	1230	1210	1220	1220	53.4	84.7	69.1	69	615	543	543	472
Cc1cc(O)cc(C)c1C[C@H]1CNC(=N)N1C[C@H](Cc1ccccc1)N1C[C@H](Cc2ccc(O)cc2)NC1=N [1968-50]	1900	1740	1820	1820	61.6	114	87.8	88	1100	896	896	690
Cc1cc(O)cc(C)c1C[C@H]1CNC(=N)N1C[C@H](Cc1ccccc1)N1C[C@H](CC(C)C)NC1=N [1968-51]	872	639	755	755	126	162	144	144	2580	2550	2560	2530
Cc1cc(O)cc(C)c1C[C@H]1CN([C@@H](Cc2ccccc2)CN2C(=N)NC[C@@H]2Cc2c(C)cc(O)cc2C)C(=N)N1 [1968-52]	1200	1240	1220	1220	83.4	102	92.8	93	582	551	551	521
